Reference: patent publication US20250195513A1, “DEGRADATION OF IRAK4 BY CONJUGATION OF IRAK4 INHIBITORS WITH E3 LIGASE LIGAND AND METHODS OF USE” (BeiGene, Ltd., priority 2022, published 2025)

What was measured:
Format in all cases: cell-based
[1] = test system: IL-6 production in human PBMC; assay: IL-6 Production Assay in Human PBMC (LPS stimulated); conditions: for IC50 / Emax: Homo sapiens, 5 h; for Emax: read-out: IL-6 (PBMC) 5 h IMax
Description: Frozen human PBMC (AllCells) were thawed in RPMI 1640 medium (Thermo Scientific) supplemented with 10% heat-inactivated FBS (Thermo Scientific) and recovered at 37° C. overnight. The next day, PBMC were seeded into 96-well plates at the density of 0.2 million cells per well and treated with compounds for 24 h. Then lipopolysaccharide was added at the final concentration of 10 ng/mL for 5 h. Culture supernatant was collected for subsequent measurement of IL-6 concentration by a TR-FRET-based method (Degorce, François, et al. Current chemical genomics. 2009, 3: 22) as described by the manufacturer manual (Cisbio). FRET signals were measured with PHERAstar FSX reader (BMG Labtech).

IRAK4 [2] = target: T1, IRAK4 (Homo sapiens, UniProt Q9NWZ3); assay: IRAK4 Degradation Assay (Karpas299, HTRF/TR-FRET)
T1 construct: endogenous in cells; host or cells: Karpas299
T1 sequence (Q9NWZ3 1-460): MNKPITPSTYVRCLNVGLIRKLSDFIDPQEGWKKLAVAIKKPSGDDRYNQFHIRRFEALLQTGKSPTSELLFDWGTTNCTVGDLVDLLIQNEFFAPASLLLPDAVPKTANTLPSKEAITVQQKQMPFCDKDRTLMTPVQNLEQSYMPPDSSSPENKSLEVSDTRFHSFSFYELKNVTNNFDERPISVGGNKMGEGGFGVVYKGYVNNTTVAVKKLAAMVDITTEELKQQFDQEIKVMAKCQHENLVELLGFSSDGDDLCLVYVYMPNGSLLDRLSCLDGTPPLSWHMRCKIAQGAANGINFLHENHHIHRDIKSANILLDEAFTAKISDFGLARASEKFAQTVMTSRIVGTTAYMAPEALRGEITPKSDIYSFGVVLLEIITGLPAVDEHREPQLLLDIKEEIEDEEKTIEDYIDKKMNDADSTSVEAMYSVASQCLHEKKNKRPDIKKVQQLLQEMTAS
Method in brief: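 Karpas299 cells at 0.2 million per well were exposed to serially diluted compounds for 24 h or 5 h, then lysed. IRAK4 remaining in lysates was quantified by HTRF (665/620 nm) after overnight antibody incubation at room temperature. Percent degradation was fitted to a four-parameter curve to give IC50 (DC50).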

[3] = test system: TNF-α production in THP-1 cells; assay: TNF-α Production Assay in THP-1 Cells (LPS stimulated); conditions: for IC50 / Emax: THP-1, 24 h; for Emax: read-out: TNF-α (THP-1) 24 h IMax
Method in brief: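 Cells (0.2 million/well) pretreated with compounds for 24 h, then stimulated with LPS at 1 μg/mL final for 24 h. TNF-α in culture supernatant quantified by TR-FRET immunoassay.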

IRAK4 [4] = target: T1, IRAK4; assay: IRAK4 Degradation Assay with Human Serum (Karpas299, HTRF/TR-FRET); conditions: Karpas-299 in human serum, 24 hrs treatment; for DC50: read-out: IRAK4 degradtion with human serum assay DC50; for Dmax: read-out: IRAK4 degradtion with human serum assay Dmax (%)
Method in brief: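 Karpas299 cells in human AB serum (0.2 million/well) treated with serial compound dilutions for 24 h. After lysis, IRAK4 quantified by HTRF (overnight antibody incubation at room temperature, 665/620 nm read). Degradation percentage fitted to four-parameter curve to give DC50.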

[5] = Karpas-299 cells, 5 h treatment, maximum percentage of degradation, read-out: IRAK4 in Karpas-299 (5 h) Dmax (%)
[6] = Karpas-299 cells, 5 h treatment, read-out: IRAK4 in Karpas-299 (5 h) DC50
[7] = Karpas-299 cells, 24 h treatment, maximum percentage of degradation, read-out: IRAK4 in Karpas-299 (24 h) Dmax (%)
[8] = Karpas-299 cells, 24 h treatment, read-out: IRAK4 in Karpas-299 (24 h) DC50
[9] = Homo sapiens, maximum inhibition

SMILES: O=C1CC[C@H](c2c(F)cc(N3CC[C@@H](C(=O)N4CCN([C@H]5CC[C@H](n6cc(NC(=O)c7coc(-c8ccnc(NCC(F)(F)F)c8)n7)c(C(F)F)n6)CC5)CC4)C3)cc2F)C(=O)N1 [Example 17, N-(3-(difluoromethyl)-1-((1R,4r)-4-(4-((R)-1-(4-((R)-2,6-dioxopiperidin-3-yl)-3,5-difluorophenyl)pyrrolidine-3-carbonyl)piperazin-1-yl)cyclohexyl)-1H-pyrazol-4-yl)-2-(2-((2,2,2-trifluoroethyl)amino)pyridin-4-yl)oxazole-4-carboxamide]
- IC50 [1]: 6.7 nM
- Emax ([1]; maximum inhibition): 93%
- Dmax (IRAK4 [2]; [5]): 96%
- DC50 (IRAK4 [2]; [6]): 8.8 nM
- Dmax (IRAK4 [2]; [7]): 97%
- DC50 (IRAK4 [2]; [8]): 2.2 nM
- IC50 ([3]; Homo sapiens): 34 nM
- Emax [3, 9]: 87%

SMILES: CC(C)(O)c1cc2nc(C3CCN(C4CCN(C(=O)C5CN(c6cc(F)c([C@H]7CCC(=O)NC7=O)c(F)c6)C5)CC4)CC3)cn2cc1NC(=O)c1cccc(C(F)(F)F)n1 [Example 126, (R)—N-(2-(1′-(1-(4-(2,6-dioxopiperidin-3-yl)-3,5-difluorophenyl)azetidine-3-carbonyl)-[1,4′-bipiperidin]-4-yl)-7-(2-hydroxypropan-2-yl)imidazo[1,2-a]pyridin-6-yl)-6-(trifluoromethyl)picolinamide]
- IC50 [1]: 23 nM
- Emax ([1]; maximum inhibition): 90%
- Dmax (IRAK4 [2]; [5]): 92%
- DC50 (IRAK4 [2]; [6]): 8.4 nM
- Dmax (IRAK4 [2]; [7]): 99%
- DC50 (IRAK4 [2]; [8]): 1.1 nM
- IC50 ([3]; Homo sapiens): 43 nM
- Emax [3, 9]: 88%

SMILES: CC(C)(O)c1cc2nn(C3CCN(C4CCN(C(=O)[C@@H]5CCN(c6cc(F)c([C@H]7CCC(=O)NC7=O)c(F)c6)C5)CC4)CC3)cc2cc1NC(=O)c1cccc(C(F)(F)F)n1 [Example 161, N-(2-(1′-((R)-1-(4-((R)-2,6-dioxopiperidin-3-yl)-3,5-difluorophenyl)pyrrolidine-3-carbonyl)-[1,4′-bipiperidin]-4-yl)-6-(2-hydroxypropan-2-yl)-2H-indazol-5-yl)-6-(trifluoromethyl)picolinamide]
- IC50 [1]: 4.9 nM
- Emax ([1]; maximum inhibition): 90%
- Dmax (IRAK4 [2]; [5]): 91%
- DC50 (IRAK4 [2]; [6]): 5 nM
- Dmax (IRAK4 [2]; [7]): 97%
- DC50 (IRAK4 [2]; [8]): 0.3 nM
- IC50 ([3]; Homo sapiens): 38 nM
- Emax [3, 9]: 85%

SMILES: COc1cc2nn([C@H]3CC[C@H](CN4CCN(C(=O)[C@H]5CCN(c6ccc(N7CCC(=O)NC7=O)cc6)C5)CC4)CC3)cc2cc1NC(=O)c1cccn(C2CC2)c1=O [Example 34, 1-cyclopropyl-N-(2-((1S,4r)-4-((4-((S)-1-(4-(2,4-dioxotetrahydropyrimidin-1(2H)-yl)phenyl)pyrrolidine-3-carbonyl)piperazin-1-yl)methyl)cyclohexyl)-6-methoxy-2H-indazol-5-yl)-2-oxo-1,2-dihydropyridine-3-carboxamide]
- IC50 [1]: 18 nM
- Emax ([1]; maximum inhibition): 85%
- Dmax (IRAK4 [2]; [5]): 81%
- DC50 (IRAK4 [2]; [6]): 18 nM
- Dmax (IRAK4 [2]; [7]): 95%
- DC50 (IRAK4 [2]; [8]): 3.6 nM
- IC50 ([3]; Homo sapiens): 77 nM
- Emax [3, 9]: 72%

SMILES: COc1cc2nn([C@H]3CC[C@H](N4CCN(C(=O)C5CN(c6ccc(N7CCC(=O)NC7=O)cc6)C5)CC4)CC3)cc2cc1NC(=O)c1cccc(C(F)(F)F)n1 [Example 37, N-(2-((1r,4r)-4-(4-(1-(4-(2,4-dioxotetrahydropyrimidin-1(2H)-yl)phenyl)azetidine-3-carbonyl)piperazin-1-yl)cyclohexyl)-6-methoxy-2H-indazol-5-yl)-6-(trifluoromethyl)picolinamide]
- IC50 [1]: 11 nM
- Emax ([1]; maximum inhibition): 90%
- DC50 (IRAK4 [2]; Degradation (Karpas-299), comparison table, Linker Type B, read-out: Compound (Linker Type B) DC50): 0.7 nM
- Dmax (IRAK4 [2]; Degradation (Karpas-299), comparison table, Linker Type B, read-out: Compound (Linker Type B) Dmax (%)): 96%
- Dmax (IRAK4 [2]; [5]): 93%
- DC50 (IRAK4 [2]; [6]): 9.1 nM
- Dmax (IRAK4 [2]; [7]): 96%
- DC50 (IRAK4 [2]; [8]): 0.7 nM
- IC50 ([3]; Homo sapiens): 34 nM
- Emax [3, 9]: 82%

SMILES: CC(C)(O)c1cc2nn([C@H]3CC[C@H](N4CCN([C@H]5C[C@H](c6ccc(N[C@H]7CCC(=O)NC7=O)cc6)C5)CC4)CC3)cc2cc1NC(=O)c1ccc2cc(C#N)cnn12 [Example 274, 3-cyano-N-(2-((1R,4r)-4-(4-((1S,3R)-3-(4-(((S)-2,6-dioxopiperidin-3-yl)amino)phenyl)cyclobutyl)piperazin-1-yl)cyclohexyl)-6-(2-hydroxypropan-2-yl)-2H-indazol-5-yl)pyrrolo[1,2-b]pyridazine-7-carboxamide]
- IC50 [1]: 2 nM
- Emax ([1]; maximum inhibition): 64%
- Dmax (IRAK4 [2]; [5]): 97%
- DC50 (IRAK4 [2]; [6]): 9.8 nM
- Dmax (IRAK4 [2]; [7]): 97%
- DC50 (IRAK4 [2]; [8]): 1.6 nM
- DC50 (IRAK4 [4]): 3.7 nM
- Dmax (IRAK4 [4]): 99%

SMILES: COC[C@@H]1CN([C@H]2CC[C@H](n3cc4cc(NC(=O)c5ccc6cc(C#N)cnn56)c(C(C)(C)O)cc4n3)CC2)CCN1C1CN(c2cc(F)c([C@H]3CCC(=O)NC3=O)c(F)c2)C1 [Example 387, 3-cyano-N-(2-((1S,4r)-4-((S)-4-(1-(4-((R)-2,6-dioxopiperidin-3-yl)-3,5-difluorophenyl)azetidin-3-yl)-3-(methoxymethyl)piperazin-1-yl)cyclohexyl)-6-(2-hydroxypropan-2-yl)-2H-indazol-5-yl)pyrrolo[1,2-b]pyridazine-7-carboxamide]
- IC50 [1]: 1.7 nM
- Emax ([1]; maximum inhibition): 53%
- Dmax (IRAK4 [2]; [5]): 90%
- DC50 (IRAK4 [2]; [6]): 1.3 nM
- Dmax (IRAK4 [2]; [7]): 98%
- DC50 (IRAK4 [2]; [8]): 0.8 nM
- DC50 (IRAK4 [4]): 6.9 nM
- Dmax (IRAK4 [4]): 95%

SMILES: CC(C)(O)c1cc2nn([C@H]3CC[C@H](N4CCN(C(=O)C5CN(c6cc(F)c([C@H]7CCC(=O)NC7=O)c(F)c6)C5)CC4)CC3)cc2cc1NC(=O)c1cccc(C(F)(F)F)n1 [Example 38, N-(2-((1r,4r)-4-(4-(1-(4-((R)-2,6-dioxopiperidin-3-yl)-3,5-difluorophenyl)azetidine-3-carbonyl)piperazin-1-yl)cyclohexyl)-6-(2-hydroxypropan-2-yl)-2H-indazol-5-yl)-6-(trifluoromethyl)picolinamide]
- IC50 [1]: 2.1 nM
- Emax ([1]; maximum inhibition): 91%
- Dmax (IRAK4 [2]; [5]): 95%
- DC50 (IRAK4 [2]; [6]): 2.3 nM
- Dmax (IRAK4 [2]; [7]): 99%
- DC50 (IRAK4 [2]; [8]): 0.4 nM
- IC50 ([3]; Homo sapiens): 19 nM
- Emax [3, 9]: 87%

SMILES: [2H]C([2H])([2H])Oc1cc2nn([C@H]3CC[C@H](N4CCN(C(=O)C5CN(c6cc(F)c([C@H]7CCC(=O)NC7=O)c(F)c6)C5)CC4)CC3)cc2cc1NC(=O)c1cccc(C(F)(F)F)n1 [Example 165, N-(2-((1r,4r)-4-(4-(1-(4-((R)-2,6-dioxopiperidin-3-yl)-3,5-difluorophenyl)azetidine-3-carbonyl)piperazin-1-yl)cyclohexyl)-6-(methoxy-d3)-2H-indazol-5-yl)-6-(trifluoromethyl)picolinamide]
- IC50 [1]: 7.9 nM
- Emax ([1]; maximum inhibition): 91%
- Dmax (IRAK4 [2]; [5]): 97%
- DC50 (IRAK4 [2]; [6]): 13 nM
- Dmax (IRAK4 [2]; [7]): 98%
- DC50 (IRAK4 [2]; [8]): 0.7 nM
- IC50 ([3]; Homo sapiens): 73 nM
- Emax [3, 9]: 82%

SMILES: COC[C@@H]1CN(CCc2cc(F)c([C@H]3CCC(=O)NC3=O)c(F)c2)CCN1[C@H]1CC[C@H](n2cc3cc(NC(=O)c4ccc5cc(C#N)cnn45)c(C(C)(C)O)cc3n2)CC1 [Example 325, 3-cyano-N-(2-((1S,4r)-4-((S)-4-(4-((R)-2,6-dioxopiperidin-3-yl)-3,5-difluorophenethyl)-2-(methoxymethyl)piperazin-1-yl)cyclohexyl)-6-(2-hydroxypropan-2-yl)-2H-indazol-5-yl)pyrrolo[1,2-b]pyridazine-7-carboxamide]
- IC50 [1]: 4.2 nM
- Emax ([1]; maximum inhibition): 72%
- Dmax (IRAK4 [2]; [7]): 96%
- DC50 (IRAK4 [2]; [8]): 0.9 nM
- DC50 (IRAK4 [4]): 15 nM
- Dmax (IRAK4 [4]): 91%

SMILES: CC[C@@H]1[C@H](F)C(=O)N[C@@H]1COc1nccc2cc(C(N)=O)c(OC)cc12 [PF-06650833]
- IL-6 (PBMC) 5 h IMax ([1]; maximum inhibition): <50%
- IC50 [3]: 19 nM
- TNF-α (THP-1) 24 h IMax ([3]; maximum inhibition): 67%
